Test results published in patent publication US8466202B2, “Anthracenedione compounds” (Sunten Phytotech Co., Ltd., priority 2006, dated 2013).
Values joined by “and” are separate entries in the source; they are usually repeats but may differ in a detail not shown here. Equal entries are not always repeated.

How the values were obtained:
healthy male S.D. rats = experiment: Feces production in rats over the 10-day period (Example 3); type: in vivo, rat; conditions: for increase of the feces amount (wet weight): vs control of the same group; for Pellet count / Water content / Wet Weight: Group III, Physcion 4 mg/kg, CP 8 mg/kg
Description: During this period, the body weights of the rats were weighed each day and recorded. Feces of each rat were studied three times during the period for any unusual observations. Specifically, the amounts of feces were weighed on Days 11, 15, 18, and 21. During observation, each rat was placed in a metabolic cage. Feces were collected every twenty-four hours. The number of collected feces pellets was counted, and the pellets' shapes and colors were evaluated. After weighing the moist feces, they were dried in an oven at 100° C. for twenty-four hours. The water content from the feces was calculated according to the following formula: Water content percentage=[(wet weight−dry weight)/wet weight]×100%. (I) The results are summarized in Table 2 below: The aforementioned STD05 and compounds were studied for the laxative activity. Healthy male S.D. rats (BioLASCO Taiwan Co. Ltd.) were divided into three groups (i.e., Groups 1-3) in this study. In Group I, 6 rats, as negative control, were given no treatment; 6 rats, as positive control, were given 3.35 mg/kg/day Sennosides (Through®, Chung Mei Pharmaceutical Co., Ltd; Active ingredient: Sennosides 20 mg, as sennoside A+B 12 mg, Lot. 012F 006); 6 rats were treated STD05 (8 mg/kg/day); 6 rats were treated with an extract fraction containing aloe-emodin, rhein, and emodin (“ARE”, 8 mg/kg/day); 6 rats were treated with Aloe-emodin (4 mg/kg/day); and 6 rats were treated with Rhein (4 mg/kg/day). In Group II, 6 rats, as negative control, were given no treatment; 6 rats, as positive control, were given 3.35 mg/kg/day Sennosides; 6 rats were treated STD05 (24 mg/kg/day); 6 rats were treated with an extract fraction containing ARE (24 mg/kg/day); 6 rats were treated with Chrysophanol (4 mg/kg/day); and 6 rats were treated with Emodin (4 mg/kg/day). In Group III, 6 rats, as negative control, were given no treatment; 6 rats were treated with Physcoin (4 mg/kg/day); and 6 rats were treated with a mixture of chrysophanol and physcion (8 mg/kg/day, “CP”). The experiments were carried out under controlled temperature, humidity, and lighting. Each rat was fed standard rat food and water ad libitum in housing that provided a 12-hour light/dark cycle. For statistical comparison, all of the rats were divided into six sets according to the body weights. The first part of the experiment studied the effect of the test substances on feces production. During the 10-day period, the body weights of the rats were weighed each day and recorded. The rat's feces was also studied three times in the manner described above during the 10-day period for any unusual observations. During the 10-day period, any rat that appeared dying was euthanized, dissected, and examined for any illness or injury. Any complications or illness were analyzed by H&E stains to determine the cause of death and to allow for dosage reconsiderations for future experiments. Summarized in Table 4 below are the effects of the compounds, mixtures, or extracts on the rat body weights. During the period, feces produced by the rats were studied days 1, 5, and 10 in the same manner described above. […] In the 10-day period, the rats administered with STD05 produced more feces (wet weight) that the rats in the control group by about 32%. In addition, the pellet counts for the rats administered with STD05 were greater than those for the control rats by about 20%. Furthermore, STD05 increased the water content in feces by about 18%. The same experiments were conducted on rats administered with physcion, aloe-emodin, chrysophanol, rhein, emodin, CP, and ARE.

[1] = Body weight of rats over the 10-day period (Example 3); type: in vivo, rat; parameters: Body weight Difference: unit not given here; conditions: Group III, Physcion 4 mg/kg, CP 8 mg/kg
Description: The aforementioned STD05 and compounds were studied for the laxative activity. Healthy male S.D. rats (BioLASCO Taiwan Co. Ltd.) were divided into three groups (i.e., Groups 1-3) in this study. In Group I, 6 rats, as negative control, were given no treatment; 6 rats, as positive control, were given 3.35 mg/kg/day Sennosides (Through®, Chung Mei Pharmaceutical Co., Ltd; Active ingredient: Sennosides 20 mg, as sennoside A+B 12 mg, Lot. 012F 006); 6 rats were treated STD05 (8 mg/kg/day); 6 rats were treated with an extract fraction containing aloe-emodin, rhein, and emodin (“ARE”, 8 mg/kg/day); 6 rats were treated with Aloe-emodin (4 mg/kg/day); and 6 rats were treated with Rhein (4 mg/kg/day). In Group II, 6 rats, as negative control, were given no treatment; 6 rats, as positive control, were given 3.35 mg/kg/day Sennosides; 6 rats were treated STD05 (24 mg/kg/day); 6 rats were treated with an extract fraction containing ARE (24 mg/kg/day); 6 rats were treated with Chrysophanol (4 mg/kg/day); and 6 rats were treated with Emodin (4 mg/kg/day). In Group III, 6 rats, as negative control, were given no treatment; 6 rats were treated with Physcoin (4 mg/kg/day); and 6 rats were treated with a mixture of chrysophanol and physcion (8 mg/kg/day, “CP”). The experiments were carried out under controlled temperature, humidity, and lighting. Each rat was fed standard rat food and water ad libitum in housing that provided a 12-hour light/dark cycle. For statistical comparison, all of the rats were divided into six sets according to the body weights. The first part of the experiment studied the effect of the test substances on feces production. During the 10-day period, the body weights of the rats were weighed each day and recorded. The rat's feces was also studied three times in the manner described above during the 10-day period for any unusual observations. During the 10-day period, any rat that appeared dying was euthanized, dissected, and examined for any illness or injury. Any complications or illness were analyzed by H&E stains to determine the cause of death and to allow for dosage reconsiderations for future experiments. Summarized in Table 4 below are the effects of the compounds, mixtures, or extracts on the rat body weights.

[2] = Side effects compared with Rheum palmatum Linne herb extracts (statement, no method given); conditions: general statement
[3] = Enteric absorption rate (statement, no method given); conditions: general statement

enteric absorption rate [3]: very low
SMILES: COc1cc(O)c2c(c1)C(=O)c1cc(C)cc(O)c1C2=O [Physcion, physcion]
increase of the feces amount (wet weight) (healthy male S.D. rats; Day 1): 93%
increase of the feces amount (wet weight) (healthy male S.D. rats; Day 5): 57%
increase of the feces amount (wet weight) (healthy male S.D. rats; Day 10): 32%
Pellet count (healthy male S.D. rats; Day 1): 134
Water content (healthy male S.D. rats; Day 1): 55.73%
Wet Weight (healthy male S.D. rats; Day 1): 35.38 g
Pellet count (healthy male S.D. rats; Day 5): 128
Water content (healthy male S.D. rats; Day 5): 53.80%
Wet Weight (healthy male S.D. rats; Day 5): 35.17 g
Pellet count (healthy male S.D. rats; Day 10): 121
Water content (healthy male S.D. rats; Day 10): 47.66%
Wet Weight (healthy male S.D. rats; Day 10): 29.43 g
increase of the feces amount (wet weight), average (healthy male S.D. rats; average of Days 1, 5 and 10): 61%
Body weight Difference, Mean ([1]; group mean, Day 10 minus Day 1): 30 g
Body weight End Day 10, Mean ([1]; group mean): 425 g
Body weight Difference ([1]; individual rats, Day 10 minus Day 1): 25 and 30 (3×) and 45 and 20
Body weight End Day 10 ([1]; individual rats, in g (unit assumed)): 410 and 430 and 450 and 385 and 415 and 460
side effects often seen in herb extracts (cramping, bloating, gas, and diarrhea) [2]: do not have the side effects
